Test results taken from article PMC12647645, “Structural interactions of BWC0977 with Klebsiella pneumoniae topoisomerase IV and biochemical basis of its broad-spectrum activity” (Communications Biology, 2025).
Values after ≈ are worked out from the molar mass of the structure shown.

Experiments:
[1] = tested on: E. coli MG1655 GyrA WT, ParC R119K; assay: microbe, parasite or virus in culture; format: cell-based; conditions: Escherichia coli
E. coli BAA 2469 = assay: microbe, parasite or virus in culture; format: cell-based; conditions: Escherichia coli, BAA2469
[2] = tested on: E. coli MG1655 GyrA R121K, ParC WT; assay: microbe, parasite or virus in culture; format: cell-based; conditions: Escherichia coli
P. aeruginosa BAA 2794 = assay: microbe, parasite or virus in culture; format: cell-based; conditions: Pseudomonas aeruginosa, BAA2794
P. aeruginosa gyrase = P. aeruginosa gyrase (Pseudomonas aeruginosa, UniProt P48372+Q9I7C2); assay: biochemical
S. aureus ATCC 29213 = assay: MIC broth microdilution; format: cell-based; conditions: Staphylococcus aureus, ATCC29213
P. aeruginosa BAA 2797 = assay: microbe, parasite or virus in culture; format: cell-based; conditions: Pseudomonas aeruginosa, BAA2797
[3] = tested on: E. coli MG1655 GyrA D82N, ParC D79N; assay: microbe, parasite or virus in culture; format: cell-based; conditions: Escherichia coli
E. coli ATCC 25922 [4] = assay: Resistant mutant generation by serial passage method; format: cell-based; conditions: Escherichia coli, read-out: MIC, serial passage
[5] = molecular target: P. aeruginosa topoisomerase IV (Pseudomonas aeruginosa, UniProt Q9HUJ8+Q9HUK1); assay: Topoisomerase IV decatenation assay, P. aeruginosa; format: biochemical
Experimental: Topoisomerase IV decatenation reactions were performed using 2.5 nM E. coli enzyme and 60 ng kinetoplast DNA (kDNA) in an assay buffer containing 50 mM HEPES-KOH (pH 7.6), 100 mM potassium glutamate, 10 mM magnesium acetate, 10 mM DTT, 1 mM ATP, and 50 μg/mL albumin. Assays with P. aeruginosa topoisomerase IV (3 nM) were conducted in a similar buffer but with 50 mM HEPES-KOH (pH 7.9), 100 mM potassium glutamate, 6 mM magnesium acetate, 6 mM DTT, 1 mM ATP, 2 mM spermidine, and 50 μg/mL albumin. For S. aureus topoisomerase IV assay, the reactions contained 4 nM enzyme in an assay buffer composed of 50 mM Tris-HCl (pH 7.5), 5 mM MgCl₂, 5 mM DTT, 1.5 mM ATP, 350 mM potassium glutamate, and 0.05 mg/mL albumin. The procedures followed were consistent with those used in the supercoiling assays. Decatenated minicircles were resolved on 0.8% agarose gels, while the kDNA substrate remained in the wells. Gels were stained with 0.8 μg/mL ethidium bromide solution for 10 min, followed by destaining. DNA bands were visualized using a gel documentation system, and compound inhibition analysis was carried out using the same procedures described for the supercoiling assays.

Human topo IIα = Human topo IIα (Homo sapiens, UniProt P11388); assay: Human topo IIα decatenation assay; format: biochemical; conditions: read-out: IC50 Human topo IIα decatenation
Experimental: (§1) Human topo IIα (0.9 nM) and topo IIß (2.2 nM) decatenation assays were performed following the same protocol used for bacterial topoisomerase IV decatenation assays. The assay buffer was made of 50 mM Tris. HCl (pH 7.5), 125 mM NaCl, 10 mM MgCl2, 5 mM DTT, and 100 μg/mL albumin.

[6] = tested on: E. coli MG1655 GyrA WT, ParC D79N; assay: microbe, parasite or virus in culture; format: cell-based; conditions: Escherichia coli
E. coli BAA 2471 = assay: microbe, parasite or virus in culture; format: cell-based; conditions: Escherichia coli, BAA2471
E. faecalis ATCC 29212 = assay: MIC broth microdilution; format: cell-based; conditions: Enterococcus faecalis, ATCC29212
K. pneumoniae ATCC 13883 = assay: MIC broth microdilution; format: cell-based; conditions: Klebsiella pneumoniae, ATCC13883
E. coli = conditions: ref 8 (Flamm et al., 2017); cited from earlier work
P. aeruginosa ATCC 27853 = assay: MIC broth microdilution; format: cell-based; conditions: Pseudomonas aeruginosa, ATCC27853
Human topo IIß = Human topo IIß (Homo sapiens, UniProt Q02880); assay: Human topo IIß decatenation assay; format: biochemical
Experimental: as §1

K. pneumoniae KPNIH1 = assay: microbe, parasite or virus in culture; format: cell-based; conditions: Klebsiella pneumoniae
S. aureus = conditions: ref 8 (Flamm et al., 2017); cited from earlier work
A. baumannii BAA 2885 = assay: microbe, parasite or virus in culture; format: cell-based; conditions: Acinetobacter baumannii, BAA2885
[7] = tested on: E. coli MG1655 (GyrA WT, ParC WT); assay: microbe, parasite or virus in culture; format: cell-based; conditions: Escherichia coli
K. pneumoniae BAA 2782 = assay: microbe, parasite or virus in culture; format: cell-based; conditions: Klebsiella pneumoniae, BAA2782
K. pneumoniae BAA 2784 = assay: microbe, parasite or virus in culture; format: cell-based; conditions: Klebsiella pneumoniae, BAA2784
E. coli ATCC 25922 [8] = assay: MIC broth microdilution; format: cell-based; conditions: Escherichia coli, ATCC25922
[9] = tested on: E. coli MG1655 GyrA M120A, ParC M118A; assay: microbe, parasite or virus in culture; format: cell-based; conditions: Escherichia coli
A. baumannii ATCC 19606 = assay: MIC broth microdilution; format: cell-based; conditions: Acinetobacter baumannii, ATCC19606
K. pneumoniae = conditions: ref 7 (Arends et al., 2019); cited from earlier work
[10] = tested on: E. coli MG1655 GyrA D82N, ParC WT; assay: microbe, parasite or virus in culture; format: cell-based; conditions: Escherichia coli
E. faecalis = tested on: E. faecalis; parameters: method as in ref 7 (Arends et al., 2019); conditions: ref 7 (Arends et al., 2019); cited from earlier work
E. cloacae = conditions: ref 7 (Arends et al., 2019); cited from earlier work

Sequence of P. aeruginosa gyrase (Q9I7C2 whole entry): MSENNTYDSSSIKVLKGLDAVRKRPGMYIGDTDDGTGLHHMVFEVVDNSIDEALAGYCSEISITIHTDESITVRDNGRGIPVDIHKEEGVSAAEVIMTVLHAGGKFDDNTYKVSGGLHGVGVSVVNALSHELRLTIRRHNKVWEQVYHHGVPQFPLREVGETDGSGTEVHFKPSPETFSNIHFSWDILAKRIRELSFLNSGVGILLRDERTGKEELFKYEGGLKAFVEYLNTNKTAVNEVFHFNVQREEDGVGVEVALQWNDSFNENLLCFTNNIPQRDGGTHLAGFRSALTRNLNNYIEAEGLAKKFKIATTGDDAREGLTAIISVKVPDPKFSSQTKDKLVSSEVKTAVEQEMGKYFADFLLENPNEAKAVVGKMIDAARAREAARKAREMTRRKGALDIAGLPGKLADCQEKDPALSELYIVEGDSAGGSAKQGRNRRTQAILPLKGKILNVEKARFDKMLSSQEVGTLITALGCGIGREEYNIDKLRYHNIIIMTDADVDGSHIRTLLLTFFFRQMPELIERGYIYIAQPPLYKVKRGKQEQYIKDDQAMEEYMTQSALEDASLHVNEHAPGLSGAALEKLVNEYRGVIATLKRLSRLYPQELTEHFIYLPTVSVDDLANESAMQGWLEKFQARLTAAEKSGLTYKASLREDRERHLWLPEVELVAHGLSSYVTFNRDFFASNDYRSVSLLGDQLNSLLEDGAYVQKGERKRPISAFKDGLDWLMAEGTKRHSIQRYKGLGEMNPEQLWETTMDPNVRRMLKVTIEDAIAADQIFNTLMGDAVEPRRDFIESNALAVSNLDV
Sequence of P. aeruginosa gyrase (P48372 whole entry): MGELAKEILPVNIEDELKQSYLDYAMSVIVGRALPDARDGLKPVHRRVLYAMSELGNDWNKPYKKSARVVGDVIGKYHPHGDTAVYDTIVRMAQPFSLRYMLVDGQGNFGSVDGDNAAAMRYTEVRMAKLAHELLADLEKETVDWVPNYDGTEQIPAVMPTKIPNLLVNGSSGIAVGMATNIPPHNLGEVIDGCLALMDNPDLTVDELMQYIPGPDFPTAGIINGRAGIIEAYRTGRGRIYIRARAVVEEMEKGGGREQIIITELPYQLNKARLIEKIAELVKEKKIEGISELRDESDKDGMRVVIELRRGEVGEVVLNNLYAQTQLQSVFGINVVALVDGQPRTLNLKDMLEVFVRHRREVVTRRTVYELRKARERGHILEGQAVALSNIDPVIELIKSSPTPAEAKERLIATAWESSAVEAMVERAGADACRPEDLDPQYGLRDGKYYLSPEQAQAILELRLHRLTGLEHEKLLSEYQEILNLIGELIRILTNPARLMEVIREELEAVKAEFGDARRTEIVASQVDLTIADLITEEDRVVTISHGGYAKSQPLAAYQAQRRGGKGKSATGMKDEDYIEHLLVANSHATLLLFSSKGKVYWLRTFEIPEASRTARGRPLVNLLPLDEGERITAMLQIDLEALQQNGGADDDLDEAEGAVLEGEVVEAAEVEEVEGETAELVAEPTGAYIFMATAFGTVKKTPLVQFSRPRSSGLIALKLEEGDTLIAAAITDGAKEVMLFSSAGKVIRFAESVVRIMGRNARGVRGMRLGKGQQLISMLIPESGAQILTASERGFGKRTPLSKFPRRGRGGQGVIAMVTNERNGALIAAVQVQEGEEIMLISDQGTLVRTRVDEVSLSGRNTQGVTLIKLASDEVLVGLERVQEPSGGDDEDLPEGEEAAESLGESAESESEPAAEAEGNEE
Sequence of P. aeruginosa topoisomerase IV (Q9HUK1 whole entry): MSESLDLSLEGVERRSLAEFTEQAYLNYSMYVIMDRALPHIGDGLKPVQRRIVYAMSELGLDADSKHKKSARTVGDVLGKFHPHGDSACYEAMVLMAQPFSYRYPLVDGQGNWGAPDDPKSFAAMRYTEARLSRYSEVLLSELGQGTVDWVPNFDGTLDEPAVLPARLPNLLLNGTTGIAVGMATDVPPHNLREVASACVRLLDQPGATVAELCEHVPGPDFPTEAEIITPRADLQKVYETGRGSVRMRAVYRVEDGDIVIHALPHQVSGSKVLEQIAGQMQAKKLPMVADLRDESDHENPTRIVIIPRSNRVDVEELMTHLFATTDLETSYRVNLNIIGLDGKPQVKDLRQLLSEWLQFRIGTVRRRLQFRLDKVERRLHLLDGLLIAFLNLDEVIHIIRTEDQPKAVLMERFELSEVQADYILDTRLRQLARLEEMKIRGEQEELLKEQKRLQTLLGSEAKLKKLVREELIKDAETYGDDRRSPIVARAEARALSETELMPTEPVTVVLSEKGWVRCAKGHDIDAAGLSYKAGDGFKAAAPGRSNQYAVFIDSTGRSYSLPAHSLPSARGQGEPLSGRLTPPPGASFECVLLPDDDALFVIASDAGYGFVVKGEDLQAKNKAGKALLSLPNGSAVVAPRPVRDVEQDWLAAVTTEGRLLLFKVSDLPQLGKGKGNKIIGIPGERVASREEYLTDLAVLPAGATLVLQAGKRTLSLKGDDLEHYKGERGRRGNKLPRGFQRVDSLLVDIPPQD
Sequence of P. aeruginosa topoisomerase IV (Q9HUJ8 whole entry): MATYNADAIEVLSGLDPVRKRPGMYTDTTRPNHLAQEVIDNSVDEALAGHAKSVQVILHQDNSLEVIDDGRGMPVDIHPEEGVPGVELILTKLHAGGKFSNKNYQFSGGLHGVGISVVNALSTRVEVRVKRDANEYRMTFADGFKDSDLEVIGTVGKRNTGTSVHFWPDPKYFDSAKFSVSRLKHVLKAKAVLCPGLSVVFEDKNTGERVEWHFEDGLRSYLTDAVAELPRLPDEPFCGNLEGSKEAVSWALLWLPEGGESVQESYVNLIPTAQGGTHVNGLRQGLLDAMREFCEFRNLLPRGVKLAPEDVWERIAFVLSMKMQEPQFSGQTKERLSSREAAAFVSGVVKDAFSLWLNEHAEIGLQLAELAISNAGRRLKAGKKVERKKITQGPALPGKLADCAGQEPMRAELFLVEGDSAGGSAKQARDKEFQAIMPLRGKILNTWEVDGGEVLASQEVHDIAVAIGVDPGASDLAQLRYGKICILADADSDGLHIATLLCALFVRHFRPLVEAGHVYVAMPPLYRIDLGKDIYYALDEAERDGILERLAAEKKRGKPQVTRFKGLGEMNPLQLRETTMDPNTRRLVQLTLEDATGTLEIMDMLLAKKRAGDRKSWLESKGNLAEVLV
Sequence of Human topo IIα (P11388 whole entry): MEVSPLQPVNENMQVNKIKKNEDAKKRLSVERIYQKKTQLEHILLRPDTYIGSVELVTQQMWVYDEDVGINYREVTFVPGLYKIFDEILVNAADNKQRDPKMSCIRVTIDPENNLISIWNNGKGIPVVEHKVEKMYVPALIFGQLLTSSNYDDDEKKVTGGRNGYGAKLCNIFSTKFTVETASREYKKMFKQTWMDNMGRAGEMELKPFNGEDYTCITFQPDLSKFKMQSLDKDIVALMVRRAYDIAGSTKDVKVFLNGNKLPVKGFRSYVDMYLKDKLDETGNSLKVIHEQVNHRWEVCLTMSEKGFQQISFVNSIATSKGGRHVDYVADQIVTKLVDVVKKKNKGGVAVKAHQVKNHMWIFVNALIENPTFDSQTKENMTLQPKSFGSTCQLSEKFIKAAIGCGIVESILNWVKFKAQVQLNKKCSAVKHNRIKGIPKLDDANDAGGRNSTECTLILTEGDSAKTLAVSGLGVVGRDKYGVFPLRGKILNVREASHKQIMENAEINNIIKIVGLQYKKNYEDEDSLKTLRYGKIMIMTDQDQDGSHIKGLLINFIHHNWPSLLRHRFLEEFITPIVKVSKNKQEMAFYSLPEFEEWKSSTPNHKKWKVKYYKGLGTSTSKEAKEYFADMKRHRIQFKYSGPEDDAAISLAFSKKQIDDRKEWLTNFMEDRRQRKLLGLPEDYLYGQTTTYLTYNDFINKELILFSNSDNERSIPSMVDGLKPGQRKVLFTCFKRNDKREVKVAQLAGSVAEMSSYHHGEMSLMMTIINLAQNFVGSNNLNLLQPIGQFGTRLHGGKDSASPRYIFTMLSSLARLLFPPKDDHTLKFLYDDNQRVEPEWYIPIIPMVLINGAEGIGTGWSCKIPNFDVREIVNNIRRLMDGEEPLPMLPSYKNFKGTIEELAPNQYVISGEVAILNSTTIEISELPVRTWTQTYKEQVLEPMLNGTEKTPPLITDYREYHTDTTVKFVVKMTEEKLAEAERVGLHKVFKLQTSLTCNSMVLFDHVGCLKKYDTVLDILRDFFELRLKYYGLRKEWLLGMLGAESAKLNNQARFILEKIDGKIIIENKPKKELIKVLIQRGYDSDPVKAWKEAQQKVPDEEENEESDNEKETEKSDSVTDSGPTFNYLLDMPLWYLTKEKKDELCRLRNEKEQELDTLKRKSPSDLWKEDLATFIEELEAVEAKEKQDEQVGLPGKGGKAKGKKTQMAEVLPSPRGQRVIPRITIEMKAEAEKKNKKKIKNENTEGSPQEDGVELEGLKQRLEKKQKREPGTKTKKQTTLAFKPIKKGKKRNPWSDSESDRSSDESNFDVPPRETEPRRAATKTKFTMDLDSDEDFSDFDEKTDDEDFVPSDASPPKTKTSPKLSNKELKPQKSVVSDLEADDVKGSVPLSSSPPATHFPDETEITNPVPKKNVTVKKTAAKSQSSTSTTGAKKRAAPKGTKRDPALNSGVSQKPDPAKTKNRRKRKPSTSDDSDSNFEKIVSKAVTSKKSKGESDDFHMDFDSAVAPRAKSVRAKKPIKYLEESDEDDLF

Structure (SMILES): O=c1ccc2ncc(=O)n3c2n1C[C@H]3CN1CCC(NCc2cc3c(cn2)OCCC3)CC1 [Gepotidacin, reference compound]
- MIC [1]: 0.42 µg/mL (≈ 0.936 µM)
- MIC (E. coli BAA 2469): 0.5 µg/mL (≈ 1.11 µM)
- MIC [2]: 0.13 µg/mL (≈ 0.29 µM)
- MIC (P. aeruginosa BAA 2794): 0.5 µg/mL (≈ 1.11 µM)
- IC50 (P. aeruginosa gyrase): 350 nM
- MIC (S. aureus ATCC 29213): 0.125 µg/mL (≈ 0.279 µM)
- MIC (P. aeruginosa BAA 2797): 1 µg/mL (≈ 2.23 µM)
- MIC [3]: > 40 µg/mL
- MIC (E. coli ATCC 25922 [4]; ATCC25922, 24 h): 0.25 µg/mL (≈ 0.557 µM)
- MIC (E. coli ATCC 25922 [4]; ATCC25922, 288 h): 1.25 µg/mL (≈ 2.79 µM)
- IC50 [5]: 1560 nM
- IC50 (Human topo IIα): > 200000 nM
- MIC [6]: 0.83 µg/mL (≈ 1.85 µM)
- MIC (E. coli BAA 2471): 2 µg/mL (≈ 4.46 µM)
- MIC (E. faecalis ATCC 29212): 1 µg/mL (≈ 2.23 µM)
- MIC (K. pneumoniae ATCC 13883): 1 µg/mL (≈ 2.23 µM)
- MIC90 against diverse global isolates (E. coli): 4 µg/mL (≈ 8.92 µM)
- MIC (P. aeruginosa ATCC 27853): 1 µg/mL (≈ 2.23 µM)
- IC50 (Human topo IIß): > 200000 nM
- MIC (K. pneumoniae KPNIH1): 8 µg/mL (≈ 17.8 µM)
- MIC90 against diverse global isolates (S. aureus): 0.5 µg/mL (≈ 1.11 µM)
- MIC (A. baumannii BAA 2885): 2 µg/mL (≈ 4.46 µM)
- MIC [7]: 0.47 µg/mL (≈ 1.05 µM)
- MIC (K. pneumoniae BAA 2782): 1 µg/mL (≈ 2.23 µM)
- MIC (K. pneumoniae BAA 2784): 1 µg/mL (≈ 2.23 µM)
- MIC (E. coli ATCC 25922 [8]): 0.5 µg/mL (≈ 1.11 µM)
- MIC [9]: 0.63 µg/mL (≈ 1.4 µM)
- MIC (A. baumannii ATCC 19606): 2 µg/mL (≈ 4.46 µM)
- MIC90 against diverse global isolates (K. pneumoniae): 16 µg/mL (≈ 35.7 µM)
- MIC [10]: 0.42 µg/mL (≈ 0.936 µM)
- MIC90 against diverse global isolates (E. faecalis): 2 µg/mL (≈ 4.46 µM)
- MIC90 against diverse global isolates (E. cloacae): 16 µg/mL (≈ 35.7 µM)
